# According to patent US12612412B2, “Antiviral heterocyclic compounds” (Enanta Pharmaceuticals, Inc., priority 2021, dated 2026):
# How the values were obtained:
# [1] = test system: genotype A, "Long" strain RSV; assay: RSV-A assay (CPE protection in Hep-2 cells, ATPlite readout); type: cell-based, Human respiratory syncytial virus (HRSV); details: human respiratory syncytial virus, RSV-A Long strain, MOI 0.1, CPE protection, read-out: Human RSV-A (“Long”) EC50
# Summary of the method: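 Hep-2, 8,000 cells/well, MOI 0.1 (PFU- or TCID50-based); 2-fold compound series, duplicates; 5 d incubation; ATPlite luminescence readout; EC50.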
# [2] = test system: HMPV clinical isolate TN/1501/A1; assay: HMPV antiviral assay Method-B (clinical isolate TN/1501/A1 in LLC-MK2 cells, ATP-Lite readout); type: cell-based, Human metapneumovirus (HMPV); details: human metapneumovirus, LLC-MK2, 144 h, hMPV WT1501 (clinical isolate TN/1501/A1), 6 days
# Summary of the method: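 LLC-MK2 cells infected in suspension with TN/1501/A1 at MOI 0.014 in serum-free medium with 2 μg/mL TPCK-trypsin (final), incubated 6 days at 37° C. Compounds tested in duplicate, 10-point 3-fold dilutions from 10 μM. Cell health read by ATP-Lite luminescence, normalised to virus-only and cells-only controls; EC50 by four-parameter logistic fit.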
Structure (SMILES),EC50 [1] [µM],EC50 [2] [µM]
COc1cc(C(=O)NC[C@](O)(c2cc3c(c(-c4ccc5c(c4)OCCO5)n2)OC[C@]3(C)C(N)=O)C(F)(F)F)cc2cn(C3CC3)nc12 [Example 973],> 0.2,> 0.5
COc1cc(C(=O)NC[C@](O)(c2cc3c(c(-c4ccc(F)c(C(F)(F)F)c4)n2)OC[C@]3(C)C(N)=O)C(F)(F)F)cc2cn(C3CC3)nc12 [Example 974],< 0.2,< 0.5
COc1cc(C(=O)NC[C@](O)(c2cc3c(c(-c4cccc(Cl)c4)n2)OC[C@]3(C)C(N)=O)C(F)(F)F)cc2cn(C3CC3)nc12 [Example 975],< 0.2,< 0.5
COc1cc(C(=O)NC[C@](O)(c2cc3c(c(-c4ccc(OC5CC5)cc4)n2)OC[C@]3(C)C(N)=O)C(F)(F)F)cc2cn(C3CC3)nc12 [Example 976],< 0.2,> 0.5
COc1cc(C(=O)NC[C@](O)(c2cc3c(c(-c4cccc(C5CC5)c4)n2)OC[C@]3(C)C(N)=O)C(F)(F)F)cc2cn(C3CC3)nc12 [Example 977],< 0.2,> 0.5
COc1cc(C(=O)NC[C@](O)(c2cc3c(c(-c4cccc(OC(F)(F)F)c4)n2)OC[C@]3(C)C(N)=O)C(F)(F)F)cc2cn(C3CC3)nc12 [Example 978],< 0.2,> 0.5
COc1cc(C(=O)NC[C@](O)(c2cc3c(c(-c4ccc(OCC(F)F)cc4)n2)OC[C@]3(C)C(N)=O)C(F)(F)F)cc2cn(C3CC3)nc12 [Example 979],< 0.2,< 0.5
COc1cc(C(=O)NC[C@](O)(c2cc3c(c(-c4ccc5c(c4)CC5)n2)OC[C@]3(C)C(N)=O)C(F)(F)F)cc2cn(C3CC3)nc12 [Example 980],< 0.2,< 0.5
COc1cc(C(=O)NC[C@](O)(c2cc3c(c(-c4ccc(C5(C#N)CC5)cc4)n2)OC[C@]3(C)C(N)=O)C(F)(F)F)cc2cn(C3CC3)nc12 [Example 981],> 0.2,> 0.5
C#Cc1ccc(-c2nc([C@@](O)(CNC(=O)c3cc(OC)c4nn(C5CC5)cc4c3)C(F)(F)F)cc3c2OC[C@]3(C)C(N)=O)cc1 [Example 982],< 0.2,> 0.5
COc1cc(C(=O)NC[C@](O)(c2cc3c(c(-c4ccc(OC(F)(F)F)c(Cl)c4)n2)OC[C@]3(C)C(N)=O)C(F)(F)F)cc2cn(C3CC3)nc12 [Example 983],< 0.2,> 0.5
COc1cc(C(=O)NC[C@](O)(c2cc3c(c(-c4ccc5c(c4)CCC5)n2)OC[C@]3(C)C(N)=O)C(F)(F)F)cc2cn(C3CC3)nc12 [Example 984],> 0.2,> 0.5
COc1cc(C(=O)NC[C@](O)(c2cc3c(c(-c4ccc(F)c(F)c4)n2)OC[C@]3(C)C(N)=O)C(F)(F)F)cc2cn(C3CC3)nc12 [Example 985],< 0.2,< 0.5
COc1cc(C(=O)NC[C@](O)(c2cc3c(c(-c4ccc(Cl)c(F)c4)n2)OC[C@]3(C)C(N)=O)C(F)(F)F)cc2cn(C3CC3)nc12 [Example 986],< 0.2,< 0.5
COc1cc(C(=O)NC[C@](O)(c2cc3c(c(-c4ccc(Cl)cc4F)n2)OC[C@]3(C)C(N)=O)C(F)(F)F)cc2cn(C3CC3)nc12 [Example 987],< 0.2,< 0.5
COc1cc(C(=O)NC[C@](O)(c2cc3c(c(-c4cccc(F)c4F)n2)OC[C@]3(C)C(N)=O)C(F)(F)F)cc2cn(C3CC3)nc12 [Example 988],< 0.2,< 0.5
COc1cc(C(=O)NC[C@](O)(c2cc3c(c(-c4c(F)cccc4Cl)n2)OC[C@]3(C)C(N)=O)C(F)(F)F)cc2cn(C3CC3)nc12 [Example 989],< 0.2,< 0.5
COc1cc(C(=O)NC[C@](O)(c2cc3c(c(-c4cc(Cl)ccc4F)n2)OC[C@]3(C)C(N)=O)C(F)(F)F)cc2cn(C3CC3)nc12 [Example 990],< 0.2,< 0.5
COc1cc(C(=O)NC[C@](O)(c2cc3c(c(-c4cc(F)ccc4Cl)n2)OC[C@]3(C)C(N)=O)C(F)(F)F)cc2cn(C3CC3)nc12 [Example 991],< 0.2,< 0.5
COc1cc(C(=O)NC[C@](O)(c2cc3c(c(-c4cc(F)ccc4F)n2)OC[C@]3(C)C(N)=O)C(F)(F)F)cc2cn(C3CC3)nc12 [Example 992],< 0.2,< 0.5
COc1cc(C(=O)NC[C@](O)(c2cc3c(c(-c4ccc(F)cc4Cl)n2)OC[C@]3(C)C(N)=O)C(F)(F)F)cc2cn(C3CC3)nc12 [Example 993],< 0.2,< 0.5
COc1cc(C(=O)NC[C@](O)(c2cc3c(c(-c4ccc(C(F)(F)F)s4)n2)OC[C@]3(C)C(N)=O)C(F)(F)F)cc2cn(C3CC3)nc12 [Example 994],< 0.2,< 0.5

Structure (SMILES),EC50 [1] [µM],EC50 [2] [µM]
COc1cc(C(=O)NC[C@](O)(c2cc3c(c(-c4ccc5c(c4)C(F)(F)C(=O)N5)n2)OC[C@]3(C)C(N)=O)C(F)(F)F)cc2cn(C3CC3)nc12 [Example 995],> 0.2,> 0.5
COc1cc(C(=O)NC[C@](O)(c2cc3c(c(-c4cc(F)c(F)c(F)c4F)n2)OC[C@]3(C)C(N)=O)C(F)(F)F)cc2cn(C3CC3)nc12 [Example 996],< 0.2,< 0.5
COc1cc(C(=O)NC[C@](O)(c2cc3c(c(-c4c(F)cc(F)cc4F)n2)OC[C@]3(C)C(N)=O)C(F)(F)F)cc2cn(C3CC3)nc12 [Example 997],< 0.2,< 0.5
COc1cc(C(=O)NC[C@](O)(c2cc3c(c(-c4ccc(F)cc4)n2)OC[C@@]3(C(N)=O)C(F)F)C(F)(F)F)cc2cn(C3CC3)nc12 [Example 999],< 0.2,< 0.5
COc1cc(C(=O)NC[C@](O)(c2cc3c(c(-c4ccc(F)cc4)n2)OC[C@]3(C(N)=O)C(F)F)C(F)(F)F)cc2cc(Cl)c(C)nc12 [Example 1000],< 0.2,> 0.5
COc1cc(C(=O)NC[C@](O)(c2cc3c(c(-c4ccc(F)cc4)n2)OC[C@@]3(C(N)=O)C(F)F)C(F)(F)F)cc2cc(Cl)c(C)nc12 [Example 1001],< 0.2,< 0.5
COc1cc(C(=O)NC[C@](O)(c2cc3c(c(-c4ccc(F)c(Cl)c4)n2)OC[C@]3(C(N)=O)C(F)F)C(F)(F)F)cc2cn(C3CC3)nc12 [Example 1002],> 0.2,> 0.5
COc1cc(C(=O)NC[C@](O)(c2cc3c(c(-c4ccc(F)c(Cl)c4)n2)OC[C@@]3(C(N)=O)C(F)F)C(F)(F)F)cc2cn(C3CC3)nc12 [Example 1003],< 0.2,< 0.5
COc1cc(C(=O)NC[C@](O)(c2cc3c(c(-c4ccc(F)c(Cl)c4)n2)OC[C@]3(C(N)=O)C(F)F)C(F)(F)F)cc2cc(Cl)c(C)nc12 [Example 1004],> 0.2,> 0.5
COc1cc(C(=O)NC[C@](O)(c2cc3c(c(-c4ccc(F)c(Cl)c4)n2)OC[C@@]3(C(N)=O)C(F)F)C(F)(F)F)cc2cc(Cl)c(C)nc12 [Example 1005],< 0.2,< 0.5
Cc1cnc2c(OC(F)F)cc(C(=O)NC[C@](O)(c3cc4c(c(-c5ccc(F)cc5)n3)OC[C@]4(C(N)=O)C(F)F)C(F)(F)F)cc2c1 [Example 1006],> 0.2,> 0.5
Cc1cnc2c(OC(F)F)cc(C(=O)NC[C@](O)(c3cc4c(c(-c5ccc(F)cc5)n3)OC[C@@]4(C(N)=O)C(F)F)C(F)(F)F)cc2c1 [Example 1007],< 0.2,< 0.5
Cc1cnc2c(OC(F)F)cc(C(=O)NC[C@](O)(c3cc4c(c(-c5ccc(F)c(Cl)c5)n3)OC[C@]4(C(N)=O)C(F)F)C(F)(F)F)cc2c1 [Example 1008],> 0.2,> 0.5
Cc1cnc2c(OC(F)F)cc(C(=O)NC[C@](O)(c3cc4c(c(-c5ccc(F)c(Cl)c5)n3)OC[C@@]4(C(N)=O)C(F)F)C(F)(F)F)cc2c1 [Example 1009],< 0.2,< 0.5
COc1cc(C(=O)NC[C@](O)(c2cc3c(c(-c4ccc5c(c4)OC(F)(F)O5)n2)OC[C@]3(C(N)=O)C(F)F)C2CC2)cc2cn(C3CC3)nc12 [Example 1010],> 0.2,> 0.5
COc1cc(C(=O)NC[C@](O)(c2cc3c(c(-c4ccc5c(c4)OC(F)(F)O5)n2)OC[C@@]3(C(N)=O)C(F)F)C2CC2)cc2cn(C3CC3)nc12 [Example 1011],< 0.2,< 0.5
COc1cc(C(=O)NC[C@](O)(c2cc3c(c(-c4ccc5c(c4)OC(F)(F)O5)n2)OC[C@]3(C(N)=O)C(F)F)C2CC2)cc2cc(C3CC3)nn12 [Example 1012],> 0.2,> 0.5
COc1cc(C(=O)NC[C@](O)(c2cc3c(c(-c4ccc5c(c4)OC(F)(F)O5)n2)OC[C@@]3(C(N)=O)C(F)F)C2CC2)cc2cc(C3CC3)nn12 [Example 1013],< 0.2,< 0.5
COc1cc(C(=O)NC[C@](O)(c2cc3c(c(-c4ccc5c(c4)OC(F)(F)O5)n2)OC[C@]3(C(N)=O)C(F)F)C2CC2)cc2cc(Cl)c(C)nc12 [Example 1014],< 0.2,< 0.5
COc1cc(C(=O)NC[C@](O)(c2cc3c(c(-c4ccc5c(c4)OC(F)(F)O5)n2)OC[C@@]3(C(N)=O)C(F)F)C2CC2)cc2cc(Cl)c(C)nc12 [Example 1015],< 0.2,< 0.5
COc1cc(C(=O)NC[C@](O)(c2cc3c(c(-c4ccc(F)c(Cl)c4)n2)OC[C@]3(C(N)=O)C(F)F)C(F)(F)F)cc2sc(C3CC3)nc12 [Example 1016],> 0.2,> 0.5
COc1cc(C(=O)NC[C@](O)(c2cc3c(c(-c4ccc(F)c(Cl)c4)n2)OC[C@@]3(C(N)=O)C(F)F)C(F)(F)F)cc2sc(C3CC3)nc12 [Example 1017],< 0.2,< 0.5
